{
  "source": "patent US20250244419A1",
  "about": "“INFUSION DEVICE FOR THE PREPARATION AND DELIVERY OF MRI PROBES” (The United States of America, as represented by the …, priority 2022, published 2025)",
  "test": "Relaxation dynamics of hyperpolarized [1-13C]pyruvate (build-up time Tb, T1)",
  "type": "physicochemical",
  "text": "In addition, the relaxation dynamics of the [1-^13C]pyruvate were also studied.\nIn addition, relaxation dynamics at earth field and 1.8 T are about the same as a non-fluorinated SABRE catalyst T1=28.9±1.6 s and 66.5±7 s, respectively.\nIn addition, relaxation dynamics at earth field and 1.8 T are about the same as a non-fluorinated SABRE catalyst T1=9.0±1.9 s and 16.0±1.4 s, respectively.",
  "data": [
    {"smiles": "C[13C](=O)C(=O)O", "note": "[[1-^13C]pyruvate, Sodium [1-^13C]-pyruvate]", "values": [
      {"measurement": "total P13C (bound+free) build-up time Tb", "setting": "NFBME / deuterated methanol mixture, catalyst of Example 4", "result": "3.0 ± 0.8", "unit": "s"},
      {"measurement": "total P13C (bound+free) build-up time Tb", "setting": "methanol, catalyst of Example 4, DMSO co-ligand", "result": "6.6 ± 3.0", "unit": "s"}
    ]}
  ]
}
